The record followed here is ChEMBL document CHEMBL4513161, “CO-ADD screening of MMV (CH) - Pandemic Response Box” (2021).

Values after ≈ are worked out from the molar mass of the structure shown.

Experiment [1] relates to HEK293. Kind of experiment: cells. Type of experiment: functional, Homo sapiens, ATCC CRL1573. The following applies: Homo sapiens, ATCC CRL1573, HEK293; ASSAY_TEST Inhibition of Cell Viability; detection method Resazurin; Fluorescence (ex560/em590); MEDIA DMEM with 10% FBS; plate type 384well; TC; CORNING #3712; time 18 hr; read-out: CC50.
Experiment [2] deals with Pseudomonas aeruginosa. Kind of experiment: Antibacterial activity against Pseudomonas aeruginosa PAO397 [PAO1 d(mexAB-oprM) d(mexCD-oprJ) d(mexEF-oprN) d(mexJKL) d(mexXY) d(opmH)] (CO-ADD:GN_211); MIC in CAMBH media using NBS plates, by OD(600). The following applies: ASSAY_TEST Inhibition of Bacterial Growth, detection method Absorption (OD600), MEDIA CAMHB, plate type 384well, CORNING #3640, time 18 hr. Format: functional.

Experiment [3] concerns Cryptococcus neoformans.
Description: Antifungal activity against Cryptococcus neoformans H99 ATCC 208821 (CO-ADD:FG_002); MIC in YNB media using NBS plates, by Resazurin OD(600-570)
Experiment [4] concerns Staphylococcus aureus. The experiment is described as follows: microbe, parasite or virus in culture. Particulars: ATCC 43300, 18 h, ASSAY_TEST Inhibition of Bacterial Growth, detection method Absorption (OD600), MEDIA CAMHB, plate type 384well, NBS, CORNING #3640.
Description: Antibacterial activity against Staphylococcus aureus MRSA ATCC 43300 (CO-ADD:GP_020); MIC in CAMBH media, using NBS plates, by OD(600)
Experiment [5] deals with Escherichia coli. Kind of experiment: microbe, parasite or virus in culture. The following applies: ATCC 25922, 18 h, ASSAY_TEST Inhibition of Bacterial Growth, detection method Absorption (OD600), MEDIA CAMHB, plate type 384well, NBS, CORNING #3640.
Description: Antibacterial activity against Escherichia coli ATCC 25922 (CO-ADD:GN_001); MIC in CAMBH media using NBS plates, by OD(600)
In experiment [6] the test system is Klebsiella pneumoniae. The experiment is described as follows: microbe, parasite or virus in culture. Particulars: ATCC 700603, 18 h, ASSAY_TEST Inhibition of Bacterial Growth, detection method Absorption (OD600), MEDIA CAMHB, plate type 384well, NBS, CORNING #3640.
Description: Antibacterial activity against Klebsiella pneumoniae MDR ATCC 70063 (CO-ADD:GN_003); MIC in CAMBH media using NBS plates, by OD(600)
Experiment [7] deals with Pseudomonas aeruginosa. The experiment is described as follows: microbe, parasite or virus in culture. Particulars: ATCC 27853, 18 h, ASSAY_TEST Inhibition of Bacterial Growth, detection method Absorption (OD600), MEDIA CAMHB, plate type 384well, NBS, CORNING #3640.
Description: Antibacterial activity against Pseudomonas aeruginosa ATCC 27853 (CO-ADD:GN_042); MIC in CAMBH media using NBS plates, by OD(600)
The test system of experiment [8] is Acinetobacter baumannii. Kind of experiment: microbe, parasite or virus in culture. The following applies: ATCC 19606, 18 h, ASSAY_TEST Inhibition of Bacterial Growth, detection method Absorption (OD600), MEDIA CAMHB, plate type 384well, NBS, CORNING #3640.
Description: Antibacterial activity against Acinetobacter baumannii ATCC 19606 (CO-ADD:GN_034); MIC in CAMBH media using NBS plates, by OD600
Experiment [9] has as its system Candida albicans. The experiment is described as follows: microbe, parasite or virus in culture. The following applies: ATCC 90028, ASSAY_TEST Inhibition of Fungal Growth, detection method Absorption (OD530), plate type 384well, NBS, CORNING #3640.
Description: Antifungal activity against Candida albicans ATCC 90028 (CO-ADD:FG_001); MIC in YNB media using NBS plates, by OD630

`O=S(=O)(NCB(O)O)c1cc2c(Cl)ccc(Cl)c2s1`: the CC50 in experiment [1] was > 20 µM. Besides, the MIC is > 20 µM in experiment [2]; > 20 µM in experiment [3]; 10 µM (≈ 3.4 µg/mL) in [4]; > 20 µM in experiment [5]; > 20 µM in experiment [6]; > 20 µM in experiment [7]. The MIC in [8] and in [9] was > 20 µM in each case.

Consider `O=C(CP(=O)(O)O)NCCc1cccc(Oc2ccccc2)c1`, for which the CC50 in [1] was > 20 µM. In addition, the MIC in [2], in experiment [3], in experiment [4], in [5], in [6] and in experiment [7] was > 20 µM throughout. Further, the MIC in experiment [8] and in experiment [9] was > 20 µM throughout.

On to `O=C(NCc1cccc2ccccc12)c1cccs1`, for which the CC50 in experiment [1] was > 20 µM. Moreover, the MIC in experiment [2], in experiment [3], in [4], in experiment [5], in [6] and in experiment [7] was > 20 µM each time. For the same molecule, the MIC in experiment [8] and in experiment [9] was > 20 µM each time.

With `COc1cc(NC(=O)CN2C(=O)NC(c3ccccc3)(c3ccccc3)C2=O)cc(OC)c1`, the CC50 in [1] was > 20 µM. Also, the MIC in [2], in [3], in [4], in [5], in [6] and in experiment [7] was > 20 µM each time. The MIC in [8] and in experiment [9] was > 20 µM each time.

For `O=C(O)c1ccccc1Sc1ncnc2sc3c(c12)CCC3`, in experiment [1], the CC50 is > 20 µM. Also, the MIC in experiment [2], in experiment [3], in [4], in experiment [5], in experiment [6] and in experiment [7] was > 20 µM each time. In addition, the MIC in experiment [8] and in experiment [9] was > 20 µM each time.

Consider `C[C@@H](NC(=O)c1ccccc1-c1ccccc1)B(O)O`, for which the CC50 in experiment [1] is > 20 µM. The MIC in experiment [2], in experiment [3], in [4], in experiment [5], in [6] and in experiment [7] was > 20 µM throughout. The MIC in experiment [8] and in [9] was > 20 µM in each case.

`O=C(Nc1ccccc1C(=O)O)c1cccc(Oc2ccccc2)c1`: in experiment [1], the CC50 is > 20 µM. In addition, the MIC in [2], in experiment [3], in experiment [4], in experiment [5], in experiment [6] and in experiment [7] was > 20 µM each time. In addition, the MIC in [8] and in experiment [9] was > 20 µM each time.

On to `O=C(Nc1ccccc1)N(Cc1cc(Br)ccc1O)c1ccc(F)cc1`, for which the CC50 in [1] is > 20 µM. The MIC in [2], in [3], in experiment [4], in experiment [5], in [6] and in experiment [7] was > 20 µM throughout. In addition, the MIC in [8] and in experiment [9] was > 20 µM throughout.

`NC(=O)c1ccccc1NC(=O)c1ccc(C(=O)Nc2ccccc2C(N)=O)cc1`: the CC50 in experiment [1] is > 20 µM. The MIC in experiment [2], in experiment [3], in experiment [4], in [5], in [6] and in [7] was > 20 µM in each case. Besides, the MIC in experiment [8] and in experiment [9] was > 20 µM each time.

For `CCCCCCCc1[nH]c2ccccc2c(=O)c1O`, the CC50 in experiment [1] was > 20 µM. Besides, the MIC in [2], in experiment [3], in experiment [4], in experiment [5], in experiment [6] and in experiment [7] was > 20 µM throughout. Moreover, the MIC in experiment [8] and in experiment [9] was > 20 µM in each case.

For `COc1ccc(NC(=O)CC2Sc3ncnn3C2=O)cc1` (centres undefined), the 50% cytotoxic concentration (CC50) in experiment [1] worked out at 19.5 µM. In addition, the MIC in experiment [2] is > 20 µM; in experiment [3], 20 µM (≈ 6.09 µg/mL); in experiment [4], > 20 µM; in [5] it was > 20 µM; in experiment [6] it was > 20 µM; in [7], > 20 µM. Moreover, the MIC in experiment [8] and in [9] was > 20 µM throughout.

On to `c1ccc(-c2nnc3c4ccccc4c(N4CCNCC4)nn23)cc1`, for which the CC50 in experiment [1] is 14.2 µM. For the same molecule, the MIC in [2], in experiment [3], in [4], in experiment [5], in [6] and in experiment [7] was > 20 µM each time. The MIC in experiment [8] and in experiment [9] was > 20 µM each time.

`CCNC(=O)Nc1cc(-c2ccccc2)c(-c2cncc(C(=O)O)c2)cn1`: the CC50 in [1] is > 20 µM. Also, the MIC in [2], in experiment [3], in [4], in [5], in experiment [6] and in [7] was > 20 µM each time. For the same molecule, the MIC in experiment [8] and in [9] was > 20 µM each time.

For the molecule `Cc1cc(Nc2ccc(F)cc2)nc(SCc2nc3ccccc3[nH]2)n1`, in [1], the CC50 was > 20 µM. The MIC in experiment [2], in [3], in experiment [4], in experiment [5], in [6] and in [7] was > 20 µM each time. The MIC in experiment [8] and in experiment [9] was > 20 µM in each case.

With `CSC[C@H]1CN(Cc2c[nH]c3c(N)ncnc23)C[C@@H]1O`, in [1], the CC50 was > 20 µM. Also, the MIC in [2], in experiment [3], in [4], in [5], in experiment [6] and in experiment [7] was > 20 µM in each case. Further, the MIC in experiment [8] and in experiment [9] was > 20 µM in each case.

For the molecule `CCNC(=O)Nc1cc2c(-c3ccnc(C)c3)ccc(CNC(=O)OC)c2cn1`, in experiment [1], the CC50 was > 20 µM. Also, the MIC is 2.5 µM (≈ 0.984 µg/mL) in [2]; > 20 µM in experiment [3]; 0.312 µM (≈ 0.123 µg/mL) in experiment [4]; > 20 µM in experiment [5]; > 20 µM in experiment [6]; > 20 µM in experiment [7]. In addition, the MIC in experiment [8] and in experiment [9] was > 20 µM in each case.

`C[C@@H](O)[C@H](N)C(=O)NS(=O)(=O)c1cccc(-c2ccc3[nH]ncc3c2)c1`: the 50% cytotoxic concentration (CC50) in [1] is > 20 µM. The MIC in experiment [2], in experiment [3], in experiment [4], in [5], in experiment [6] and in [7] was > 20 µM throughout. Moreover, the MIC in experiment [8] and in experiment [9] was > 20 µM in each case.

Take `O=c1ccc2ncc(=O)n3c2n1CC3CN1CCC(NCc2cc3c(cn2)OCCC3)CC1` (centres undefined): the CC50 in experiment [1] is > 20 µM. In addition, the MIC was ≤ 0.156 µM in [2]; > 20 µM in [3]; 0.625 µM (≈ 0.28 µg/mL) in experiment [4]; 2.5 µM (≈ 1.12 µg/mL) in experiment [5]; > 20 µM in [6]; 20 µM (≈ 8.97 µg/mL) in [7]. The MIC was 10 µM (≈ 4.49 µg/mL) in [8] and > 20 µM in experiment [9].

As to `O=C(Nc1cccc(C2=NCCN2)c1)c1ccc(-c2ccc(C(=O)Nc3cccc(C4=NCCN4)c3)cc2)cc1`, the CC50 in experiment [1] was > 20 µM. For the same molecule, the MIC is 5 µM (≈ 2.64 µg/mL) in experiment [2]; > 20 µM in [3]; 0.625 µM (≈ 0.33 µg/mL) in [4]; 2.5 µM (≈ 1.32 µg/mL) in experiment [5]; > 20 µM in experiment [6]; > 20 µM in experiment [7]. For the same molecule, the MIC in [8] and in experiment [9] was > 20 µM throughout.

In the case of `NCCCc1ccccc1C(=O)Nc1ncc([N+](=O)O)s1`, the CC50 in experiment [1] was > 20 µM. For the same molecule, the MIC in experiment [2], in experiment [3], in experiment [4], in [5], in experiment [6] and in experiment [7] was > 20 µM in each case. In addition, the MIC in experiment [8] and in experiment [9] was > 20 µM throughout.

`CCOC(=O)Nc1cc(NC(C)CC(C)CN(CC)CC)c2nc(-c3ccccc3)c(-c3ccccc3)nc2n1` (centres undefined): the cytotoxic concentration (CC50) in [1] was > 20 µM. Also, the MIC in experiment [2], in experiment [3], in experiment [4], in experiment [5], in experiment [6] and in [7] was > 20 µM throughout. The MIC in [8] and in experiment [9] was > 20 µM each time.
